Measurements from PubChem BioAssay AID1919008 (Molecular Pharmacology Branch, DTP, NCI, 2023).

Tested on: DMS-114 complex spheroids with HUVEC/MSC, growth % test/control
Test: Anticancer human tumor DMS-114 cell line growth inhibition [AhR];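 further: spheroids exposed to agents for 7 days before readout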;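 on viability, T/C: 100% = DMSO vehicle control wells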
Conditions: for IC50: curve of first compound; for viability, T/C: stronger effect = lower value
Procedure, shortened: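 Spheroids combined tumor cells with HUVEC endothelial cells and human MSCs as stroma. AhR antagonists were paired with standard or investigational drugs, each dosed in half-log steps down from near clinical Cmax, or from 10 microM where Cmax was unknown.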

[1] = second compound 0.1 µM, first compound 0.0316 µM
[2] = second compound 0.1 µM, first compound 0.1 µM
[3] = second compound 0.316 µM, first compound 0.0316 µM
[4] = second compound 0.316 µM, first compound 0.1 µM
[5] = second compound 1 µM, first compound 0.0316 µM
[6] = second compound 1 µM, first compound 0.1 µM
[7] = second compound 3.16 µM, first compound 0.0316 µM
[8] = second compound 3.16 µM, first compound 0.1 µM
[9] = second compound 10 µM, first compound 0.0316 µM
[10] = second compound 10 µM, first compound 0.1 µM

CC[C@@]1(O)C(=O)OCc2c1cc1n(c2=O)Cc2cc3c(CN(C)C)c(O)ccc3nc2-1 + CC(CO)NC(=O)c1cc(-c2ccc(Cl)cc2)nn(-c2cnn(C)c2)c1=O
IC50 (second compound 0.1 µM): 34.6 nM
IC50 (second compound 0.316 µM): 32.4 nM
IC50 (second compound 1 µM): 37.2 nM
IC50 (second compound 3.16 µM): 32.7 nM
IC50 (second compound 10 µM): 32.8 nM
viability, T/C (second compound 0.1 µM, first compound 0.000316 µM): 101%
viability, T/C (second compound 0.1 µM, first compound 0.001 µM): 103%
viability, T/C (second compound 0.1 µM, first compound 0.00316 µM): 95.7%
viability, T/C (second compound 0.1 µM, first compound 0.01 µM): 95.2%
viability, T/C [1]: 51.9%
viability, T/C [2]: 27.2%
viability, T/C (second compound 0.316 µM, first compound 0.000316 µM): 105%
viability, T/C (second compound 0.316 µM, first compound 0.001 µM): 99%
viability, T/C (second compound 0.316 µM, first compound 0.00316 µM): 83.2%
viability, T/C (second compound 0.316 µM, first compound 0.01 µM): 81.3%
viability, T/C [3]: 46%
viability, T/C [4]: 26.9%
viability, T/C (second compound 1 µM, first compound 0.000316 µM): 88.9%
viability, T/C (second compound 1 µM, first compound 0.001 µM): 95.2%
viability, T/C (second compound 1 µM, first compound 0.00316 µM): 90%
viability, T/C (second compound 1 µM, first compound 0.01 µM): 85.5%
viability, T/C [5]: 54.6%
viability, T/C [6]: 21.9%
viability, T/C (second compound 3.16 µM, first compound 0.000316 µM): 104%
viability, T/C (second compound 3.16 µM, first compound 0.001 µM): 100%
viability, T/C (second compound 3.16 µM, first compound 0.00316 µM): 92.1%
viability, T/C (second compound 3.16 µM, first compound 0.01 µM): 74.2%
viability, T/C [7]: 51%
viability, T/C [8]: 26.4%
viability, T/C (second compound 10 µM, first compound 0.000316 µM): 116%
viability, T/C (second compound 10 µM, first compound 0.001 µM): 105%
viability, T/C (second compound 10 µM, first compound 0.00316 µM): 95.1%
viability, T/C (second compound 10 µM, first compound 0.01 µM): 92.7%
viability, T/C [9]: 48.1%
viability, T/C [10]: 25.4%

NS(=O)(=O)OCC1CC(n2ccc3c(NC4CCc5ccccc54)ncnc32)CC1O (stereo not given) + Cc1cncc(-c2nc(NCCc3c[nH]c4ccccc34)c3ncn(C(C)C)c3n2)c1
IC50 (second compound 0.1 µM): 50.3 nM
IC50 (second compound 0.316 µM): 45.8 nM
IC50 (second compound 1 µM): 42 nM
IC50 (second compound 3.16 µM): 40.5 nM
IC50 (second compound 10 µM): < 31.6 nM
viability, T/C [1]: 59.4%
viability, T/C [2]: 36%
viability, T/C (second compound 0.1 µM, first compound 0.316 µM): 17.1%
viability, T/C (second compound 0.1 µM, first compound 1 µM): 7.31%
viability, T/C (second compound 0.1 µM, first compound 3.16 µM): 5.19%
viability, T/C (second compound 0.1 µM, first compound 10 µM): 4.45%
viability, T/C [3]: 56.9%
viability, T/C [4]: 35.4%
viability, T/C (second compound 0.316 µM, first compound 0.316 µM): 16.1%
viability, T/C (second compound 0.316 µM, first compound 1 µM): 6.55%
viability, T/C (second compound 0.316 µM, first compound 3.16 µM): 5.26%
viability, T/C (second compound 0.316 µM, first compound 10 µM): 3.74%
viability, T/C [5]: 55%
viability, T/C [6]: 34.7%
viability, T/C (second compound 1 µM, first compound 0.316 µM): 17.6%
viability, T/C (second compound 1 µM, first compound 1 µM): 6.95%
viability, T/C (second compound 1 µM, first compound 3.16 µM): 4.06%
viability, T/C (second compound 1 µM, first compound 10 µM): 4.6%
viability, T/C [7]: 54.9%
viability, T/C [8]: 32.2%
viability, T/C (second compound 3.16 µM, first compound 0.316 µM): 15.8%
viability, T/C (second compound 3.16 µM, first compound 1 µM): 4.55%
viability, T/C (second compound 3.16 µM, first compound 3.16 µM): 4.39%
viability, T/C (second compound 3.16 µM, first compound 10 µM): 2.86%
viability, T/C [9]: 42.2%
viability, T/C [10]: 24.6%
viability, T/C (second compound 10 µM, first compound 0.316 µM): 12.2%
viability, T/C (second compound 10 µM, first compound 1 µM): 3.49%
viability, T/C (second compound 10 µM, first compound 3.16 µM): 2.11%
viability, T/C (second compound 10 µM, first compound 10 µM): 1.61%
